For 27 molecules, Ki results are on record in US9815796B2 (Merck Sharp & Dohme Corp., priority 2013, dated 2017).

SMILES strings stand for the structures. Where two headings read alike, the source gives them in different places.

One experiment has as its target human PDE2A1 (Homo sapiens (Human), UniProt O00408). The experiment is described as follows: IMAP FP PDE selectivity panel, human PDE2A1. Type of experiment: biochemical. A digest of the protocol:
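GST-tagged human PDE2A1 expressed in insect cells, run at room temperature for 60 min with 50 nM FAM-cAMP containing 1000 nM cGMP, pH 7.2 Tris/MgCl2 buffer. IMAP fluorescence polarization read after binding step.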

For another experiment, the target named is Rhesus PDE2A3 (Macaca mulatta, UniProt B3VTJ2). The experiment is described as follows: PDE2 fluorescence polarization (IMAP FP) inhibition assay, rhesus enzyme. In kind it is biochemical, rhesus macaque. A digest of the protocol: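 Rhesus PDE2A3 came from lysate of transiently transfected AD293 cells, diluted to give 20% substrate conversion. Substrate was 50 nM FAM-cAMP with 1 uM cGMP activator in Tris pH 7.2/MgCl2 buffer, run 60 min at room temperature over 10-point 3-fold dilutions in 1% DMSO. Read-out was IMAP fluorescence polarization (mP) after ≥1 h binding.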
Sequence of Rhesus PDE2A3 (B3VTJ2 1-941): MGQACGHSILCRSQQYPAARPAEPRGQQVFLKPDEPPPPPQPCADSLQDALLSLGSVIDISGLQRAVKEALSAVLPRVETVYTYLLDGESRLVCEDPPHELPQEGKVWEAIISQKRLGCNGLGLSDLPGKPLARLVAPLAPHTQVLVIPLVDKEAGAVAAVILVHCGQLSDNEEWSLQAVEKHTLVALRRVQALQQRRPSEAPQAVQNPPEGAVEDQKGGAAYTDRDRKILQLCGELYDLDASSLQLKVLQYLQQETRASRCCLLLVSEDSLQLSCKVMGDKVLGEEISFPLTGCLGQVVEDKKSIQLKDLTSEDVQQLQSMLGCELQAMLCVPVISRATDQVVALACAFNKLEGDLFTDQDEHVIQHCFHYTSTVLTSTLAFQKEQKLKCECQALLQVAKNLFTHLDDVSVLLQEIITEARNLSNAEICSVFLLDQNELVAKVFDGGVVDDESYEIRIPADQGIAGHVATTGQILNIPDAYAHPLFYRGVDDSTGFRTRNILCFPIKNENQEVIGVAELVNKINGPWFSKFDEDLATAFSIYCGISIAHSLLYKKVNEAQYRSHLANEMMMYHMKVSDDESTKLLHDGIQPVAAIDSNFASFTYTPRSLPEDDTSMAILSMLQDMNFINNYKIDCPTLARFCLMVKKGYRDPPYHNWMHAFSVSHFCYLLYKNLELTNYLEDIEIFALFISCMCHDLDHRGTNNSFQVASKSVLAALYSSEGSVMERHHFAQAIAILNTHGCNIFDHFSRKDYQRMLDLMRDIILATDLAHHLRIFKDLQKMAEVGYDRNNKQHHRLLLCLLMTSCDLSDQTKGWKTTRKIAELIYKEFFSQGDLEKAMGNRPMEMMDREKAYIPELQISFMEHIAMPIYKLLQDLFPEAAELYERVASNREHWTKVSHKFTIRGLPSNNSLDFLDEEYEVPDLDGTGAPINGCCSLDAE

The mark [1] stands for this setting: Human PDE2, Lab A, read-out: Human PDE2 Ki (nM) - Lab A.
Setting [2] is: Rhesus PDE2, Lab A, read-out: Rhesus PDE2 Ki (nM) - Lab A.
Setting [3] is: Human PDE2, Lab B, read-out: Human PDE2 Ki (nM) - Lab B.
Setting [4] is: Rhesus PDE2, Lab B, read-out: Rhesus PDE2 Ki (nM) - Lab B.

Sequence of human PDE2A1 (O00408 other isoform, or with tags, fused parts or gaps): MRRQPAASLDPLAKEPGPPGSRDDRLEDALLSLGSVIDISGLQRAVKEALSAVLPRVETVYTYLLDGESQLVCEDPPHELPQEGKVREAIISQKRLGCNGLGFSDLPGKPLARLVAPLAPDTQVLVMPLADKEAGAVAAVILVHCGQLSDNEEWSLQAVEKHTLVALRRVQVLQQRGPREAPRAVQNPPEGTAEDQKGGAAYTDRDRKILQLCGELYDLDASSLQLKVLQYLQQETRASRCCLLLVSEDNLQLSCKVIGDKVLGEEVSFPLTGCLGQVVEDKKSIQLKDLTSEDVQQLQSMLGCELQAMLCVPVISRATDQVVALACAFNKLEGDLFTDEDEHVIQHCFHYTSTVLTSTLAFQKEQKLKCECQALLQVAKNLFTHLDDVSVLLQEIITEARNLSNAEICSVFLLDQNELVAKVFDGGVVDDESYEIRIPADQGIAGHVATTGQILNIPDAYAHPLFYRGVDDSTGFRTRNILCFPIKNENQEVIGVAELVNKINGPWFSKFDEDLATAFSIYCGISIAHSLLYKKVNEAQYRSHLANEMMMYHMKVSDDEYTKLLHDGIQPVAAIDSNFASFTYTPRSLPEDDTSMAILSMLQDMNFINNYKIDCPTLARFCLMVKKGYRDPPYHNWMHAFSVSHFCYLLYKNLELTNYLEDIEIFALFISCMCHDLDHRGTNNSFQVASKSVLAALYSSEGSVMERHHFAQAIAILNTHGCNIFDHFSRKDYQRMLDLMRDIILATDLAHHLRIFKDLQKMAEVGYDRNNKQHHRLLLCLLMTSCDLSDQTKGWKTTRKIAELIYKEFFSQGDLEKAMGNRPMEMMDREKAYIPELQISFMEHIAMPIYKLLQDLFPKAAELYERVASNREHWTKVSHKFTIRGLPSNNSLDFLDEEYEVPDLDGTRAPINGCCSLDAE

As usually defined, the Ki is a measure of affinity in units of concentration, obtained from inhibition or displacement. Turning to `CC(C)[C@@H](NC(=O)c1cc(=O)[nH]c(C2CC2)n1)c1ccc(OC(F)(F)F)cc1` [Example 191, 2-cyclopropyl-N-{(1R)-2-methyl-1-[4-(trifluoromethoxy)phenyl]propyl}-6-oxo-1,6-dihydropyrimidine-4-carboxamide], the Ki on human PDE2A1 (setting [1]) was determined as 1.2 nM; on Rhesus PDE2A3 (setting [2]) it was 3.4 nM.
As to `COCc1nc(C(=O)N[C@H](C)c2ccc(C(F)(F)F)c(F)c2)cc(=O)[nH]1` [Example 125, N-{(1R)-1-[3-fluoro-4-(trifluoromethyl)phenyl]ethyl}-2-(methoxymethyl)-6-oxo-1,6-dihydropyrimidine-4-carboxamide], the inhibitory constant (Ki) stood at 45 nM at human PDE2A1 (setting [1]) and 176 nM on Rhesus PDE2A3 (setting [2]).
On to `CC[C@@H](NC(=O)c1cc(=O)[nH]c(-c2ccccc2)n1)c1ccc(S(F)(F)(F)(F)F)cc1` [Example 386, 6-oxo-N-{(1R)-1-[4-(pentafluoro-λ^6-sulfanyl)phenyl]propyl}-2-phenyl-1,6-dihydropyrimidine-4-carboxamide], for which the Ki amounted to 6.5 nM on human PDE2A1 (setting [3]) and 8.1 nM at Rhesus PDE2A3 (setting [4]).
The corresponding values for `O=C(N[C@@H](c1ccc(S(F)(F)(F)(F)F)cc1)C1CC1)c1cc(=O)[nH]c(-c2ccccc2)n1` [Example 404, N-{(R)-cyclopropyl[4-(pentafluoro-λ^6-sulfanyl)phenyl]methyl}-6-oxo-2-phenyl-1,6-dihydropyrimidine-4-carboxamide] are 6.5 nM and 9.5 nM.
As to `CC1(C(NC(=O)c2cc(=O)[nH]c(-c3ncccn3)n2)c2ccc(SC(F)(F)F)c(F)c2)CC1` (single isomer, unassigned) [Example 709, (R)- or (S)-N-((3-fluoro-4-((trifluoromethyl)thio)phenyl)(1-methylcyclopropyl)methyl)-6-oxo-1,6-dihydro-[2,2′-bipyrimidine]-4-carboxamide], the inhibitory constant (Ki) at human PDE2A1 (setting [3]) was 7.4 nM; on Rhesus PDE2A3 (setting [4]), 8.1 nM.
Consider `CC[C@@H](NC(=O)c1cc(=O)[nH]c(-c2ncccn2)n1)c1ccc(S(F)(F)(F)(F)F)cc1` [Example 257, 6-oxo-N-{(1R)-1-[4-(pentafluoro-λ^6-sulfanyl)phenyl]propyl}-1,6-dihydro-2,2′-bipyrimidine-4-carboxamide], for which the values for the inhibitory constant (Ki) at human PDE2A1 (setting [3]), on Rhesus PDE2A3 (setting [2]) and on Rhesus PDE2A3 (setting [4]) were 3.8 nM, 2.6 nM and 4 nM, respectively.
For the molecule `COc1ccc(Cc2nc(C(=O)N[C@@H](c3ccc(C(F)(F)F)cc3)C3CC3)cc(=O)[nH]2)cc1F` [Example 525, N-{(R)-cyclopropyl[4-(trifluoromethyl)phenyl]methyl}-2-(3-fluoro-4-methoxybenzyl)-6-oxo-1,6-dihydropyrimidine-4-carboxamide], the results for the Ki on human PDE2A1 (setting [3]) and at Rhesus PDE2A3 (setting [4]) were 1.9 nM and 2.3 nM, respectively.
`CC(C)[C@@H](NC(=O)c1cc(=O)[nH]c(C2CC2)n1)c1ccc(OC(F)(F)F)c(F)c1` [Example 128, 2-cyclopropyl-N-{(1R)-1-[3-fluoro-4-(trifluoromethoxy)phenyl]-2-methylpropyl}-6-oxo-1,6-dihydropyrimidine-4-carboxamide]: the Ki was 1.2 nM at human PDE2A1 (setting [1]) and 2 nM on Rhesus PDE2A3 (setting [2]).
With `CC(NC(=O)c1cc(=O)[nH]c(-c2ccccc2)n1)c1ccc(C(C)(C)C)cc1` (stereo not drawn) [Example 391, N-[1-(4-tert-butylphenyl)ethyl]-6-oxo-2-phenyl-1,6-dihydropyrimidine-4-carboxamide], the inhibition constant Ki came out at 40 nM on human PDE2A1 (setting [3]) and 65 nM at Rhesus PDE2A3 (setting [4]).
Take `O=C(N[C@@H](c1ccc(OC(F)(F)F)cc1)C1CC1)c1cc(=O)[nH]c(-c2ccccc2)n1` [Example 175, N-{(R)-cyclopropyl[4-(trifluoromethoxy)phenyl]methyl}-6-oxo-2-phenyl-1,6-dihydropyrimidine-4-carboxamide]: the Ki at human PDE2A1 (setting [1]) and at Rhesus PDE2A3 (setting [2]) was 3.9 nM in each case.
Turning to `CC(C)(NC(=O)c1cc(=O)[nH]c(C2CC2)n1)c1ccc(OC(F)(F)F)c(F)c1` [Example 198], the Ki on human PDE2A1 (setting [1]) amounted to 59 nM; on Rhesus PDE2A3 (setting [2]), 96 nM.
In the case of `CC(C)(NC(=O)c1cc(=O)[nH]c(-c2ccccc2)n1)c1ccc(C(F)(F)F)cc1` [Example 280, N-{1-methyl-1-[4-(trifluoromethyl)phenyl]ethyl}-6-oxo-2-phenyl-1,6-dihydropyrimidine-4-carboxamide], the inhibition constant (Ki) on human PDE2A1 (setting [1]) was 16 nM; on Rhesus PDE2A3 (setting [2]), 19 nM.
On the same counts, the results for `COCc1nc(C(=O)N[C@@H](c2ccc(C(F)(F)F)c(F)c2)C2CC2)cc(=O)[nH]1` [Example 115, N-{(R)-cyclopropyl[3-fluoro-4-(trifluoromethyl)phenyl]methyl}-2-(methoxymethyl)-6-oxo-1,6-dihydropyrimidine-4-carboxamide] are 15 nM and 73 nM.
`C[C@@H](NC(=O)c1cc(=O)[nH]c(-c2ccccc2)n1)c1ccc(Cl)cc1` [Example 418, N-[(1R)-1-(4-chlorophenyl)ethyl]-6-oxo-2-phenyl-1,6-dihydropyrimidine-4-carboxamide]: the Ki was 41 nM at human PDE2A1 (setting [3]) and 48 nM on Rhesus PDE2A3 (setting [4]).
For `Cc1nc(C(=O)NC(C)c2ccc(C3CC3)cc2)cc(=O)[nH]1` (stereo not drawn) [Example 42, N-[1-(4-cyclopropylphenyl)ethyl]-2-methyl-6-oxo-1,6-dihydropyrimidine-4-carboxamide], the inhibition constant (Ki) worked out at 31 nM at human PDE2A1 (setting [1]) and 72 nM at Rhesus PDE2A3 (setting [2]).
Regarding `COc1ccc(Cc2nc(C(=O)N[C@@H](c3ccc(SC(F)(F)F)cc3)C(C)C)cc(=O)[nH]2)cc1F` [Example 511, 2-(3-fluoro-4-methoxybenzyl)-N-[(1R)-2-methyl-1-{4-[(trifluoromethyl)sulfanyl]phenyl}propyl]-6-oxo-1,6-dihydropyrimidine-4-carboxamide], the inhibition constant (Ki) was determined as 1.4 nM on human PDE2A1 (setting [3]) and 1.2 nM on Rhesus PDE2A3 (setting [4]).
Take `CC(C)(NC(=O)c1cc(=O)[nH]c(-c2ccccc2)n1)c1ccc(C(F)(F)F)c(F)c1` [Example 158, N-{1-[3-fluoro-4-(trifluoromethyl)phenyl]-1-methylethyl}-6-oxo-2-phenyl-1,6-dihydropyrimidine-4-carboxamide]: the inhibition constant Ki on human PDE2A1 (setting [1]) was 9 nM; at Rhesus PDE2A3 (setting [2]), 14 nM.
The corresponding values for `CC(C)(NC(=O)c1cc(=O)[nH]c(C2CC2)n1)c1ccc(OC(F)(F)F)cc1` [Example 295, 2-cyclopropyl-N-{1-methyl-1-[4-(trifluoromethoxy)phenyl]ethyl}-6-oxo-1,6-dihydropyrimidine-4-carboxamide] are 77 nM and 127 nM.
With `Cc1nc(C(=O)N[C@@H](c2ccc(C3CC3)c(F)c2)C2CC2)cc(=O)[nH]1` [Example 426, N-[(R)-cyclopropyl(4-cyclopropyl-3-fluorophenyl)methyl]-2-methyl-6-oxo-1,6-dihydropyrimidine-4-carboxamide], the inhibitory constant (Ki) on human PDE2A1 (setting [3]) was found to be 9.5 nM; at Rhesus PDE2A3 (setting [4]), 9.1 nM.
As for `O=C(N[C@@H](c1ccc(C(F)(F)F)cc1)C1CC1)c1cc(=O)[nH]c(C2CC2)n1` [Example 213, 2-cyclopropyl-N-{(R)-cyclopropyl[4-(trifluoromethyl)phenyl]methyl}-6-oxo-1,6-dihydropyrimidine-4-carboxamide], the Ki was found to be 3.3 nM at human PDE2A1 (setting [1]) and 6.1 nM at Rhesus PDE2A3 (setting [2]).
`CC(NC(=O)c1cc(=O)[nH]c(-c2ccccc2)n1)c1ccc(C(F)(F)F)cn1` (stereo not drawn) [Example 149, 6-oxo-2-phenyl-N-{1-[5-(trifluoromethyl)pyridin-2-yl]ethyl}-1,6-dihydropyrimidine-4-carboxamide]: the Ki at human PDE2A1 (setting [1]) was 117 nM; at Rhesus PDE2A3 (setting [2]), 204 nM.
Turning to `CC(C)[C@@H](NC(=O)c1cc(=O)[nH]c(-c2ccccc2)n1)c1ccc(C(F)(F)F)cc1` [Example 167, N-{(1R)-2-methyl-1-[4-(trifluoromethyl)phenyl]propyl}-6-oxo-2-phenyl-1,6-dihydropyrimidine-4-carboxamide], the inhibitory constant (Ki) at human PDE2A1 (setting [1]) is 1.9 nM; on human PDE2A1 (setting [3]), 2.3 nM; at Rhesus PDE2A3 (setting [2]) it was 2.3 nM; on Rhesus PDE2A3 (setting [4]), 3.5 nM.
Turning to `COc1ccc(Cc2nc(C(=O)N[C@@H](c3ccc(OC(F)(F)F)cc3)C(C)C)cc(=O)[nH]2)cc1F` [Example 517, 2-(3-fluoro-4-methoxybenzyl)-N-{(1R)-2-methyl-1-[4-(trifluoromethoxy)phenyl]propyl}-6-oxo-1,6-dihydropyrimidine-4-carboxamide], the Ki at human PDE2A1 (setting [3]) was determined as 1.7 nM; at Rhesus PDE2A3 (setting [4]), 1.3 nM.
As to `Cc1nc(C(=O)NC(C)c2ccc(C(C)(C)C(F)(F)F)cc2)cc(=O)[nH]1` (single isomer, unassigned) [Example 694, (S)- or (R)-2-methyl-6-oxo-N-(1-(4-(1,1,1-trifluoro-2-methylpropan-2-yl)phenyl)ethyl)-1,6-dihydropyrimidine-4-carboxamide], the results for the inhibitory constant (Ki) at human PDE2A1 (setting [3]) and on Rhesus PDE2A3 (setting [4]) were more than 1240 nM and more than 2970 nM, respectively.
On to `CC(C)(NC(=O)c1cc(=O)[nH]c(-c2ccccc2)n1)c1ccc(OC(F)(F)F)c(F)c1` [Example 161, N-{1-[3-fluoro-4-(trifluoromethoxy)phenyl]-1-methylethyl}-6-oxo-2-phenyl-1,6-dihydropyrimidine-4-carboxamide], for which the Ki on human PDE2A1 (setting [1]) came to 60 nM; on Rhesus PDE2A3 (setting [2]), 88 nM.
On the same counts, the results for `Cc1nc(C(=O)N[C@H](C)c2cccc3ccccc23)cc(=O)[nH]1` [Example 301, (R)-2-methyl-N-(1-(naphthalen-1-yl)ethyl)-6-oxo-1,6-dihydropyrimidine-4-carboxamide] are 66 nM and 53 nM.
Regarding `COc1ccc(C(C)(C)c2nc(C(=O)N[C@@H](c3ccc(OC(F)(F)F)cc3)C3CC3)cc(=O)[nH]2)cc1` [Example 501, N-{(R)-cyclopropyl[4-(trifluoromethoxy)phenyl]methyl}-2-[1-(4-methoxyphenyl)-1-methylethyl]-6-oxo-1,6-dihydropyrimidine-4-carboxamide], the values for the Ki at human PDE2A1 (setting [3]) and at Rhesus PDE2A3 (setting [4]) were 64 nM and 77 nM, respectively.
